Source: patent publication US20080108611A1, “SUBSTITUTED THIENOPYRIMIDINE KINASE INHIBITORS” (priority 2006, published 2008)

Assays:
HER-2 = biological target: T1, HER-2 (Homo sapiens, UniProt P04626); experiment: HER-2 Kinase Assay; type: biochemical; conditions: GST-HER2, 1 μM ATP
T1 construct: the nucleotides encoding amino acids 679 to 1255 of HER-2; HIS6-Thrombin (His6 tag and thrombin site) (N); purchased Proqinase (Freiburg, Germany)
Experimental: HER-2 kinase was purified at Proqinase (Freiburg, Germany) from a construct that consisted of a fusion of GST (Glutathione-S-Transferase), HIS6-Thrombin and the nucleotides encoding amino acids 679 to 1255 of HER-2.
A mixture of a 10× kinase reaction buffer (600 mM Hepes at pH 7.5, 30 mM Magnesium Chloride, 0.03 mM Sodium Vanadate and 500 μg/mL PEG 20,000), DTT (1.2 mM final from a 10 mM stock), ATP (1 μM from a 10 mM stock), biotinylated polyGluTyr (1.5 ng/μL final from stock of 1 μg/μL prepared by Upstate Biotechnologies, Lake Placid, N.Y.), Manganese Chloride (3 mM final from a 1 M stock), γ-^33P-ATP (10 μCi/μL stock) and water (70 μL/well) was added to each well of a Streptavidin Flashplate (Cat. # SMP103, NEN, Boston, Mass.).
Test compound stock (1 μL) was added to the appropriate wells. Diluted GSTHER2 kinase (6.7 ng/μL diluted into 50 mM Tris-HCl at pH 8.0 and 0.1% bovine serum albumin) (30 μL) was added (total volume of 200 ng/well) to initiate the reactions.
The reaction plates were incubated at 30° C. for 1 hr. The reaction was terminated by aspirating the reaction mixture from the plate wells and washing the wells three times with a 1×PBS stop buffer (300 μL) and 100 mM EDTA. After the final wash, the same stop buffer (200 μL) was again added to the wells. The plates were then sealed and read on the TopCount scintillation counter. The IC50 was derived according to the procedure described in Example 1.

VEGF-R2 = biological target: T2, VEGF-R2 (Rattus norvegicus, UniProt O08775); experiment: VEGF-R2 Screening Assay; type: biochemical; conditions: rat VEGF-R2 kinase domain, 10 μM ATP
T2 construct: polyhistidine (N)
T2 sequence (O08775 786-1343): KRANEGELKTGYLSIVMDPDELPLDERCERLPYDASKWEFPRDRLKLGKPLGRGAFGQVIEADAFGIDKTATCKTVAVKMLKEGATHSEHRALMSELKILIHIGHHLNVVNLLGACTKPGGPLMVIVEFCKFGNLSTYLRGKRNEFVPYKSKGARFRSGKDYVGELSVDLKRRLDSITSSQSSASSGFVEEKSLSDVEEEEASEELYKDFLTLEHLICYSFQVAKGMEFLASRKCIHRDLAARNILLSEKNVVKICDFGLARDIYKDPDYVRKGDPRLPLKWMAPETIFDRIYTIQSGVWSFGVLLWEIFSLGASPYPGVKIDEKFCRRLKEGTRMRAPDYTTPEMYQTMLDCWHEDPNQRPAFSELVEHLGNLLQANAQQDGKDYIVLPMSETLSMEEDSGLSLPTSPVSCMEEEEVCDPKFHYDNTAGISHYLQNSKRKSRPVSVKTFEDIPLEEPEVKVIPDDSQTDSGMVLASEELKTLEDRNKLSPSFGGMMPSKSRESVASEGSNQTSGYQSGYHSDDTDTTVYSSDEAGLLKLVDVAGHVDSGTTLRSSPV
Experimental: A kinase reaction mixture was prepared containing 50 mM Tris-HCl at pH 8, 10 mM MgCl2, 0.1 mM Na3PO4, 1 mM DTT, 10 μM ATP, 0.025 μM biotinylated histone-H1 peptide substrate and 0.2 μCuries per well ^33P-γ-ATP (2000-3000 Ci/mmol). 70 μL of the kinase reaction mixture was dispensed into the well of a Streptavidin FlashPlate.
Test compound stock in 100% DMSO (1 μL) was added to the wells resulting in a final concentration of 1% DMSO in the reaction with a 100 μL final reaction volume. Each enzyme was diluted in 50 mM Tris-HCl pH=8.0, 0.1% BSA and 30 μL was added to each well to initiate the reaction. The reaction was incubated for one hour at 30° C. At the end of the 1 hr incubation, the reaction was terminated by aspirating the mixture from the plate and washing the wells twice with PBS containing 100 mM EDTA. The biotinylated peptide substrate became immobilized on the Flashplate™ and the incorporation of ^33P-γ-ATP was measured by reading the plate on a scintillation counter. Inhibition of the enzymatic activity was measured by observing a reduced amount of ^33P-γ-ATP incorporated into the immobilized peptide.
The VEGF-R2 enzyme is a fusion protein containing a polyhistidine tag at the N terminus followed by amino acids 786 to 1343 of the rat VEGF-R2 kinase domain (Accession number U93306). The assay used 150 ng of the N-terminal biotinylated peptide biotin-KHKKLAEGSAYEEV-amide (VEGF-R2) per well.
The IC50 was derived according to the procedure described in Example 1.

[1] = tested on: HeLa cervical adenocarcinoma; experiment: Cell Proliferation Inhibition Assay (14C-thymidine incorporation), HeLa; type: cell-based; conditions: Homo sapiens; HeLa cells
Experimental: The ability of a test compound to inhibit unregulated cell proliferation was determined by measuring incorporation of ^14C-labelled thymidine into newly synthesized DNA within cell lines derived from carcinomas originating from several tissues. Accordingly, the anti-proliferative effect of a compound on cells with a variety of phenotypes may be determined.
Carcinoma cell lines include those such as HeLa cervical adenocarcinoma (American Type Culture Collection (ATCC), Virginia, Cat. #CCL-2), A375 malignant melanoma (ATCC CRL-1619), SK-OV-3 ovarian adenocarcinoma (ATCC HTB-77), HCT-116 colon carcinoma (CCL-247), PC-3 prostate adenocarcinoma (ATCC CRL-1435), and MDA-MB-231 (Xenogen Corp.)
The carcinoma cells were trypsinized and counted. The cells (3000-8000 count) were added to each well of a 96-well CytoStar tissue culture treated scintillating microplate (Amersham #RPNQ0160) in complete medium (100 μL) and the plate was then incubated in complete medium for 24 hrs at 37° C. in an […] atmosphere containing 5% CO2. Test compound (1 μL) in 100% DMSO was added to the plate test-wells with DMSO only added to control-wells. The plate was incubated in complete medium for a second 24 hr period at 37° C. in an atmosphere containing 5% CO2.
An aliquot of a solution of methyl ^14C-thymidine (56 mC/mmol) (NEN #NEC568 or Amersham #CFA532) and complete medium (20 uL to provide 0.2 μCi/well) was then added to each well and the plate was incubated for a third 24 hr period at 37° C. in an atmosphere containing 5% CO2. The plate contents were then discarded, the plate was washed twice with PBS (200 μL) and then PBS (200 μL) was added to each well. The plate was sealed and the degree of methyl ^14C-thymidine incorporation was quantified on a Packard Top Count.

T1 sequence (P04626 679-1255): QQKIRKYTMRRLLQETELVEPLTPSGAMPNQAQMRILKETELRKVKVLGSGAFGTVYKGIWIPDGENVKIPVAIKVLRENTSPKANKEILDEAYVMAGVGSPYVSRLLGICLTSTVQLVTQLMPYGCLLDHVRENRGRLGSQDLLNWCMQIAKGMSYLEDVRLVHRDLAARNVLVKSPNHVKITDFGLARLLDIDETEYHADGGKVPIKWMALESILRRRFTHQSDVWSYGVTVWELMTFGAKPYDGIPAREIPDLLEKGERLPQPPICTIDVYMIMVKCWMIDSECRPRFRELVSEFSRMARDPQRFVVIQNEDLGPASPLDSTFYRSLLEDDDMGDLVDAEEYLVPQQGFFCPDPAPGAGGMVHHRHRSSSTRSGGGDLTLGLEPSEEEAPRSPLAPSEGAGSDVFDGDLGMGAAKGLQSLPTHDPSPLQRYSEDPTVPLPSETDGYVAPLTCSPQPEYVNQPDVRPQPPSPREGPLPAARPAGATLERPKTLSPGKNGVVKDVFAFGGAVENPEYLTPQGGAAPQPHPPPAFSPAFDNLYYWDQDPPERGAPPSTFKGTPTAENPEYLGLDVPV

Row | Compound | IC50 (HER-2) [µM] | IC50 (VEGF-R2) [µM] | IC50 [1] [µM]
1 | Cc1cc2c(F)c(Oc3ncnc4sc(C(=O)NCCN5CCCCC5)c(C)c34)ccc2[nH]1 [Cpd 21, 4-(4-fluoro-2-methyl-1H-indol-5-yloxy)-5-methyl-thieno[2,3-d]pyrimidine-6-carboxylic acid (2-piperidin-1-yl-ethyl)-amide] | > 100 | 0.393 | 8.5
2 | COCCNC(=O)c1sc2ncnc(Oc3ccc4[nH]c(C)cc4c3F)c2c1C [Cpd 27, 4-(4-fluoro-2-methyl-1H-indol-5-yloxy)-5-methyl-thieno[2,3-d]pyrimidine-6-carboxylic acid (2-methoxy-ethyl)-amide] | > 10 | 0.378 | > 10
3 | Cc1c(C(=O)Nc2ccc(CN3CCOCC3)cc2)sc2ncnc(Nc3ccc(Oc4ccccc4)cc3)c12 [Cpd 23, 5-methyl-4-(4-phenoxy-phenylamino)-thieno[2,3-d]pyrimidine-6-carboxylic acid (4-morpholin-4-ylmethyl-phenyl)-amide] | > 100 | > 100 | > 10
4 | Cc1cc2c(F)c(Oc3ncnc4sc(C(=O)NCCN5CCOCC5)c(C)c34)ccc2[nH]1 [Cpd 19, 4-(4-fluoro-2-methyl-1H-indol-5-yloxy)-5-methyl-thieno[2,3-d]pyrimidine-6-carboxylic acid (2-morpholin-4-yl-ethyl)-amide] | > 100 | 0.248 | > 10
5 | Cc1cc2c(F)c(Oc3ncnc4sc(C(=O)Nc5ccc(CN6CCOCC6)cc5)c(C)c34)ccc2[nH]1 [Cpd 20, 4-(4-fluoro-2-methyl-1H-indol-5-yloxy)-5-methyl-thieno[2,3-d]pyrimidine-6-carboxylic acid (4-morpholin-4-ylmethyl-phenyl)-amide] | > 100 | 0.761 | > 10

Results, then the molecule that gave them:

Row | IC50 (HER-2) [µM] | IC50 (VEGF-R2) [µM] | IC50 [1] [µM] | Compound
6 | > 10 | ~100 | > 100 | Cc1c(C(=O)NCCN2CCOCC2)sc2ncnc(Nc3ccc(Oc4ccccc4)cc3)c12 [Cpd 24]
7 | > 100 | 0.619 | 15.2 | Cc1cc2c(F)c(Oc3ncnc4sc(C(=O)NCCN5CCCC5)c(C)c34)ccc2[nH]1 [Cpd 22, 4-(4-fluoro-2-methyl-1H-indol-5-yloxy)-5-methyl-thieno[2,3-d]pyrimidine-6-carboxylic acid (2-pyrrolidin-1-yl-ethyl)-amide]
